Here are results for 36 compounds from US7422793B2, “Non-toxic corrosion-protection rinses and seals based on rare earth elements” (University of Dayton, priority 2002, dated 2008).

Where two headings read alike, the source gives them in different places.

The conditions of data set [1]: cited from earlier work; for calculated redox potential: in acidic solution, Nugent et al. 1971; for oxidation-reduction potential: in acid solution, couple to the trivalent ion.
A short description of data set [2]: pH change on placing the compound into deionized water of pH 7. The data set is classed as physicochemical. The settings on record: simple laboratory experiment. From the text:
A simple laboratory experiment confirms this effect. […] However, if icosahedral Ce(NO3)6^2− (note that this ion contains no hydroxide) is placed into deionized water of pH 7, a quite remarkable pH drop to −1 can be observed. The released tetravalent cerium ions will scavenge virtually all of the available OH^− ions in solution (possibly even degrading H2O itself to obtain […]), resulting in this dramatic pH drop.

For data set [3] the following is noted: cited from earlier work.

For the compound `[Tb+4]` [Tb^+4, tetravalent terbium ion], the calculated redox potential entry in data set [1] is recorded as “+3.2 V”.

`[Ce+4]` [Ce^+4, tetravalent cerium ion]: the oxidation-reduction potential entry in data set [1] is on record as “+1.72 V”.

Turning to `[Ce+4].[OH-].[OH-].[OH-].[OH-]` [Ce(OH)4, ceric hydroxide, reference compound], the “pH after placing into deionized water of pH 7” value in data set [2] is “only a minor pH change”.

For “hexavalent chromium [Cr^+6, reference compound]”, in data set [1], the oxidation-reduction potential entry was “+1.36 V”.

Regarding `O=[Te](=O)([O-])[O-].[Cs+].[Cs+]` [Cesium tellurate], the “Solubility in Water” value in data set [3] (pH 7) is 0.01 mol/L.

Regarding `[F-].[F-].[F-].[F-].[F-].[F-].[Na+].[Na+].[Sn+4]` [Sodium hexafluorostannate], in data set [3] (pH 7), the “Solubility in Water” value is 0.01 mol/L.

On to Zinc nitrite, for which the “Solubility in Water” value in data set [3] (pH 7) is recorded as 1 × 10^0 mole/L.

As to `[F-].[F-].[F][Zr]([F])([F])[F].[Li+].[Li+]` [Lithium hexafluorozirconate], the “Solubility in Water” value in data set [3] (pH 7) was 0.08 mol/L.

Turning to `[Li+].[O-][Cl+2]([O-])[O-]` [Lithium chlorate], the “Solubility in Water” value in data set [3] (pH 7) was 55 mol/L.

With `[O]=[Mo](=[O])([OH])[OH]` [Molybdic acid], the “Solubility in Water” value in data set [3] (pH 7) is 0.0074 mol/L.

Tin (IV) fluoride: the “Solubility in Water” value in data set [3] (pH 7) is 1 × 10^0 mole/L.

`[F][Zr-2]([F])([F])([F])([F])[F].[K+].[K+]` [Potassium hexafluorozirconate]: in data set [3] (pH 7), the “Solubility in Water” value was 0.0812 mol/L.

With `[Pr+4]` [Pr^+4, tetravalent praseodymium ion], in data set [1], the calculated redox potential result is “+3.2 V”.

Turning to Rubidium hexafluorohafnate, the “Solubility in Water” value in data set [3] (pH 7) is 0.19 mol/L.

As for `[F][Sb-]([F])([F])([F])([F])[F].[Li+]` [Lithium hexafluoroantimonate], in data set [3] (pH 7), the “Solubility in Water” value is given as 1 × 10^0 mole/L.

Take Potassium arsenate: the “Solubility in Water” value in data set [3] (pH 7) is 0.74 mol/L.

For the compound `[K+].[O]=[Al][O-]` [Potassium aluminate], in data set [3] (pH 7), the “Solubility in Water” value is listed as 1 × 10^0 mole/L.

With `O[Te](O)(O)(O)(O)O` [Telluric acid], the “Solubility in Water” value in data set [3] (pH 7) was 0.5 mol/L.

In the case of `[Na+].[O-2].[O-2].[O-2].[Ta+5]` [Sodium tantalate], in data set [3] (pH 7), the “Solubility in Water” value was 0.0055 mol/L.

Turning to `OO` [Hydrogen peroxide], the “Solubility in Water” value in data set [3] (oxidizer sources, at or near 25° C. and at or near pH 7) is given as 60 wt. %.

In the case of `[Ce+3].[O-][Cl+3]([O-])([O-])[O-].[O-][Cl+3]([O-])([O-])[O-].[O-][Cl+3]([O-])([O-])[O-]` [Cerium (III) perchlorate], the “Solubility in Water” value in data set [3] (pH 7) is reported as 2.0 × 10^0 mole/L.

`[Ce+4].[O-][Cl+3]([O-])([O-])[O-].[O-][Cl+3]([O-])([O-])[O-].[O-][Cl+3]([O-])([O-])[O-].[O-][Cl+3]([O-])([O-])[O-]` [Cerium (IV) perchlorate]: in data set [3] (pH 7), the “Solubility in Water” value is recorded as 1.0 × 10^0 mole/L.

For the compound Potassium germanate, the “Solubility in Water” value in data set [3] (pH 7) is given as 1 × 10^0 mole/L.

As for `[F][Nb-2]([F])([F])([F])([F])([F])[F].[Li+].[Li+]` [Lithium heptafluoroniobate], the “Solubility in Water” value in data set [3] (pH 7) is 0.5 mol/L.

In the case of Rubidium bromate, the “Solubility in Water” value in data set [3] (pH 7) is 0.14 mol/L.

In the case of `O=[N+]([O-])O.O=[N+]([O-])O.O=[N+]([O-])O.O=[N+]([O-])O.O=[N+]([O-])O.O=[N+]([O-])O.[Ce]` [Ce(NO3)6^2−, hexanitratocerate (IV)], in data set [2], the “pH after placing into deionized water of pH 7” value was −1.

As for `F[Si-2](F)(F)(F)(F)F.[K+].[K+]` [Potassium hexafluorosilicate], the “Solubility in Water” value in data set [3] (fluoride preparative agents, at or near 25° C. and at or near pH 7) was 0.0055 mol/L.

On to `O=[Te](=O)([O-])[O-].[K+].[K+]` [Potassium tellurate], for which the “Solubility in Water” value in data set [3] (pH 7) was 0.01 mol/L.

Regarding `F[Si-2](F)(F)(F)(F)F.[Ca+2]` [Calcium hexafluorosilicate], the “Solubility in Water” value in data set [3] (pH 7) is 0.5 mol/L.

Take Calcium vanadate: the “Solubility in Water” value in data set [3] (pH 7) was 0.5 mol/L.

On to Magnesium vanadate, for which the “Solubility in Water” value in data set [3] (pH 7) is given as 1 × 10^0 mole/L.

In the case of `[O-][Cl+3]([O-])([O-])O` [Perchloric acid], in data set [3] (pH 7), the “Solubility in Water” value is recorded as 75 wt. %.

`[O-][Cl+2]([O-])[O-].[O-][Cl+2]([O-])[O-].[Sr+2]` [Strontium chlorate]: the “Solubility in Water” value in data set [3] (pH 7) is recorded as 6.9 × 10^0 mole/L.

Regarding `[F][Sb-]([F])([F])([F])([F])[F].[Na+]` [Sodium hexafluoroantimonate], in data set [3] (pH 7), the “Solubility in Water” value is recorded as 4.97 × 10^0 mole/L.

`[Cs+].[Cs+].[F][Hf-2]([F])([F])([F])([F])[F]` [Cesium hexafluorohafnate]: in data set [3] (pH 7), the “Solubility in Water” value is 0.17 mol/L.

For the compound `O=[As](=O)O[As](=O)=O` [Arsenic pentoxide], the “Solubility in Water” value in data set [3] (pH 7) is 6.5 × 10^0 mole/L.
